Test results taken from patent US20060286237A1, “Use of divanillin as a flavouring agent” (priority 2003, published 2006).

Key:
[1] = as described in JP 07-179853 A2; cited from earlier work
[2] = Taste threshold value determination
[3] = Sensory investigation of the taste impression of divanillin

In the case of `COc1cc(C=O)cc(-c2cc(C=O)cc(OC)c2O)c1O` [divanillin, 6,6′-dihydroxy-5,5′-dimethoxy-[1,1′-biphenyl]-3,3′-dicarboxaldehyde], the “odour and taste description” value [1] is listed as “odourless and tasteless”, the taste threshold value [2] is listed as “below 1 ppm” and the “taste impression at higher concentration” value ([3]; higher concentration values preferred according to JP 07-179853 A2 (0.001 to 5 wt. %)) is listed as “diminishes in favour of a vanilla-like individual taste”. For the same compound, the taste impression ([3]; own investigations) was “pleasant, adherent and rich taste impression of creaminess, milk fattiness, butteriness and sweetness”.
